According to patent US20260167674A1, “ACE2 […] SEQUENCES” (priority 2023, published 2026):
No end group written: not given here.

B1: peptide4 (BAB40431.1:22-52 angiotensin-converting enzyme-related carboxypeptidase [Mus musculus]) (peptide)
peptide: EENAKTFLNNFNQEAEDLSYQSSLASWNYNT
modifications: not checked
B2: peptide2 (WP_072363071.1:30-60 M2 family metallopeptidase [Chitinophaga sancti]) (peptide)
peptide: QEQAQTYLDGYNKTYQDLVYKDNLAQWTLNT
modifications: not checked

Assays:
SARS-COV-2 RBD = SARS-COV-2 RBD (Severe acute respiratory syndrome coronavirus 2, UniProt P0DTC2); assay: biochemical; format: binding
[1] = target: SARS-COV-2 RBD protein with His-tag, purified by recombinant expression in Pichia pastoris (SARS-COV-2), P0DTC2; assay: SPR at 25 C; His-tagged RBD captured by anti-His tag, peptide flowed over

| Molecule | Kd (SARS-COV-2 RBD) [pM] | Kd [1] [pM] |
| --- | --- | --- |
| EENAKTFLNNFNQEAEDLSYQSSLASWNYNT [peptide4] | 1.26 to 8.16 | – |
| QEQAQTYLDGYNKTYQDLVYKDNLAQWTLNT [peptide2] | 3.55 to 4.09 | – |
| B1 | – | 1.26 to 8.16 |
| B2 | – | 3.55 to 4.09 |
